# Test results from ChEMBL document CHEMBL1201862, “PubChem BioAssay data set” (2004).
# Active and inactive are the calls of the source.
# What was measured:
# SUMO-activating enzyme [1] = target: T1, SUMO-activating enzyme (Homo sapiens, UniProt Q9UBT2); test: blockers of UBC9-mediated SUMO conjugation – biochemical, AlphaScreen, SUMOylation inhibitor project, confirmation (AID 2018); format: functional
# SUMO-activating enzyme [2] = target: T1, SUMO-activating enzyme; test: blockers of SAE1/SAE2–UBC9 SUMO transfer – biochemical, HTRF, uHTS, primary screen (AID 2006); format: protein-complex assay
# Estrogen receptor = target: T2, Estrogen receptor (Homo sapiens, UniProt P03372);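 further: potency for inhibiting coactivator peptide recruitment to the receptor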
# T2 sequence (P03372 whole entry): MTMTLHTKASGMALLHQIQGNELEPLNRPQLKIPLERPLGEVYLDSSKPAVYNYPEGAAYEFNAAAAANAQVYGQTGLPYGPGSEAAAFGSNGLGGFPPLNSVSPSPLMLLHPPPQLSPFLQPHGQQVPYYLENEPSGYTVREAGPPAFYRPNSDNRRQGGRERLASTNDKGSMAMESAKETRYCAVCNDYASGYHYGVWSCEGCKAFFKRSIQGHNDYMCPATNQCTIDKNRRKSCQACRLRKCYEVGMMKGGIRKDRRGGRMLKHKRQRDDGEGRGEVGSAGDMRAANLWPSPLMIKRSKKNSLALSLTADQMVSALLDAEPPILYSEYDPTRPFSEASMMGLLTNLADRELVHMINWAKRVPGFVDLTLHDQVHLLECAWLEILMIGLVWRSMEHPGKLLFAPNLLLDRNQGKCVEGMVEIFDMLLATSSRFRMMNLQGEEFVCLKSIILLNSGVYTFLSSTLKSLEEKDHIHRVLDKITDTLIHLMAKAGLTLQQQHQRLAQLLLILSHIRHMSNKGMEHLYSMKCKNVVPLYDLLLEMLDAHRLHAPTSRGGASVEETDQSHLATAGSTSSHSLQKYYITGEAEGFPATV
# [3] = target: T3, E3 ubiquitin-protein ligase XIAP (Homo sapiens, UniProt P98170); test: small molecules displacing peptide from XIAP – biochemical, IAP family, fluorescence polarization (AID 1018); format: functional
# T3 sequence (P98170 whole entry): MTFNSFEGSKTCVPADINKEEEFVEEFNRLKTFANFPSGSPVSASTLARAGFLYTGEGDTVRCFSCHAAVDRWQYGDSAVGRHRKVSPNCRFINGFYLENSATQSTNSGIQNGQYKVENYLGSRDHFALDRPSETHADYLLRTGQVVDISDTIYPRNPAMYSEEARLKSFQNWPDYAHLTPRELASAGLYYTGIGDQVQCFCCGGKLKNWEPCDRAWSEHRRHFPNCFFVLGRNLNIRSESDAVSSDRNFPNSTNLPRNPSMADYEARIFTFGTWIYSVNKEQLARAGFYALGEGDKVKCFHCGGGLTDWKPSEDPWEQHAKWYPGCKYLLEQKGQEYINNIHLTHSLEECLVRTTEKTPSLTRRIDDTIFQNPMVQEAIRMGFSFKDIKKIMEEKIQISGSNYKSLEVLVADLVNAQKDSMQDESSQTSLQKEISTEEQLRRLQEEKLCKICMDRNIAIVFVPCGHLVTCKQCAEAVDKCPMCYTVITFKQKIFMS
# [4] = target: T3, E3 ubiquitin-protein ligase XIAP; test: Counter Screen using XIAP-Bir3 for Chemical Antagonists of Bir1/2 domains of IAP-family anti-apoptotic proteins. [Related pubchem assays (depositor defined):AID1018, AID1449, AID1514, AID1638, AID1749, AID1750, AID488957, AID488963]
# [5] = target: Voltage-dependent T-type calcium channel subunit alpha-1H (Homo sapiens, UniProt O95180); format: functional;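 further: channel activity triggered by adding a high calcium stimulation buffer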
# Chain of Voltage-dependent T-type calcium channel subunit alpha-1H (O95180 whole entry): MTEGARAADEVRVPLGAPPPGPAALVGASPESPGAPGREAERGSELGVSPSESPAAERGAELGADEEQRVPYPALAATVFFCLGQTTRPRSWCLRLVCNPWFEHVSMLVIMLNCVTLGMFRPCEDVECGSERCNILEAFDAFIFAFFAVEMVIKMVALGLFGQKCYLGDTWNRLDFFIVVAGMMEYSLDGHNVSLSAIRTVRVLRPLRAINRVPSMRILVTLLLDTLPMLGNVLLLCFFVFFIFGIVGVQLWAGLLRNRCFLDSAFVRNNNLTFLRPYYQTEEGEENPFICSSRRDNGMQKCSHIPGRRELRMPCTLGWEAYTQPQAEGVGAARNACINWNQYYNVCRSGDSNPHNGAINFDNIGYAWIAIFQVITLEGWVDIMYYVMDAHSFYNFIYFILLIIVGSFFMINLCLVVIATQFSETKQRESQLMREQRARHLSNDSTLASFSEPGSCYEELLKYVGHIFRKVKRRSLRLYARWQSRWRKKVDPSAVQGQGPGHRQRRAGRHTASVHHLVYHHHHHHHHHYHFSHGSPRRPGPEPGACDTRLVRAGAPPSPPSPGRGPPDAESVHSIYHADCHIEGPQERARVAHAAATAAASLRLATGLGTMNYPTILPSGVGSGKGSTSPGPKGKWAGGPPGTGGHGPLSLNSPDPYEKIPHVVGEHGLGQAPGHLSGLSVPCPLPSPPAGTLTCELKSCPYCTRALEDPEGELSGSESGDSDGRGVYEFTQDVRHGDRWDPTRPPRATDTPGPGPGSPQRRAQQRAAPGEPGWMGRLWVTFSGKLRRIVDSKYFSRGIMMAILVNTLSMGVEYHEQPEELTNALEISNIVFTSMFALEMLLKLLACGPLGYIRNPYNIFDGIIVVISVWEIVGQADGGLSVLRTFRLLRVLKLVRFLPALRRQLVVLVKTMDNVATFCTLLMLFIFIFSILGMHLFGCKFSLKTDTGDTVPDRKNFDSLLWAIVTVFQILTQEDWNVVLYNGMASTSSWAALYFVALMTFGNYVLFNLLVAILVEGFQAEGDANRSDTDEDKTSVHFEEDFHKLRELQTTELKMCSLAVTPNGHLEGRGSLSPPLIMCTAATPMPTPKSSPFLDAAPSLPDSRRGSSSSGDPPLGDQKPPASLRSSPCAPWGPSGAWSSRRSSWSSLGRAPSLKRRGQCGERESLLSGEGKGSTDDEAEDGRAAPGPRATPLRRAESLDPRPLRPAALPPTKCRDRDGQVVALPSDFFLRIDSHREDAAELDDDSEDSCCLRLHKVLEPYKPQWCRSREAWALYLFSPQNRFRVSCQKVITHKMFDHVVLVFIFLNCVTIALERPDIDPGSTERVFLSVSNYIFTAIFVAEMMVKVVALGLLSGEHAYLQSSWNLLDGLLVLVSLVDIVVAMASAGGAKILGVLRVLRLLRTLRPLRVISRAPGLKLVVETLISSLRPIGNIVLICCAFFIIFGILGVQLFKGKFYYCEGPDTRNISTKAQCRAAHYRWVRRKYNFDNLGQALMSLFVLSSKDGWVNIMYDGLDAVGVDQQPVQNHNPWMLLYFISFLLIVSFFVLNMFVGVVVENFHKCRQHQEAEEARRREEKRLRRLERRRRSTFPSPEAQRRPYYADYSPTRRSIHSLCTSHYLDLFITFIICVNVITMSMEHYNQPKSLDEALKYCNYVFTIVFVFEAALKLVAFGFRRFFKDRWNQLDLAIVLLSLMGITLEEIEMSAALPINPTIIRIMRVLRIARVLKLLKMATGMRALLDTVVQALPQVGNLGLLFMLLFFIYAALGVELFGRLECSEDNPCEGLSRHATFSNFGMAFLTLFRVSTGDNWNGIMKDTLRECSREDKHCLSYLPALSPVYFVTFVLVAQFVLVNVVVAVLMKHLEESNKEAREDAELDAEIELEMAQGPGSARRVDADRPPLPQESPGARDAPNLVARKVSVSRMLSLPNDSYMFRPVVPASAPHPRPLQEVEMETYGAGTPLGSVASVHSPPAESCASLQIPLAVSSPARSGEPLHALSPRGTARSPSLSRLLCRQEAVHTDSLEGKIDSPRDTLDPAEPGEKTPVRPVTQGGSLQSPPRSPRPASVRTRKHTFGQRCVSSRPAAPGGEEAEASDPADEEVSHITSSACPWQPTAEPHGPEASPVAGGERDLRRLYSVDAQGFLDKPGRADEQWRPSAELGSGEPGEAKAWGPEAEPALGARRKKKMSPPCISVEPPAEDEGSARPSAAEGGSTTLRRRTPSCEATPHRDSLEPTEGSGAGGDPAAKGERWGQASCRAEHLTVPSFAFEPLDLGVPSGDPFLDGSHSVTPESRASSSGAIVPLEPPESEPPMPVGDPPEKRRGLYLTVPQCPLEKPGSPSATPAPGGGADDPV
# [6] = viability loss in human Jurkat cells – cell-based, luminescence, cytotoxicity control for P. falciparum gametocyte viability project, dose response (AID 1117277); format: functional;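 further: potency reflects loss of cellular ATP meaning fewer viable cells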
# [7] = viability inhibitors of stage V gametocytes – luminescence, dose response (AID 1117278); format: functional, cell-based;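 further: gametocytes exposed to compound for 24 hours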
# Protein skinhead-1 = target: T4, Protein skinhead-1 (Caenorhabditis elegans, UniProt P34707); format: functional
# T4 sequence (P34707 whole entry): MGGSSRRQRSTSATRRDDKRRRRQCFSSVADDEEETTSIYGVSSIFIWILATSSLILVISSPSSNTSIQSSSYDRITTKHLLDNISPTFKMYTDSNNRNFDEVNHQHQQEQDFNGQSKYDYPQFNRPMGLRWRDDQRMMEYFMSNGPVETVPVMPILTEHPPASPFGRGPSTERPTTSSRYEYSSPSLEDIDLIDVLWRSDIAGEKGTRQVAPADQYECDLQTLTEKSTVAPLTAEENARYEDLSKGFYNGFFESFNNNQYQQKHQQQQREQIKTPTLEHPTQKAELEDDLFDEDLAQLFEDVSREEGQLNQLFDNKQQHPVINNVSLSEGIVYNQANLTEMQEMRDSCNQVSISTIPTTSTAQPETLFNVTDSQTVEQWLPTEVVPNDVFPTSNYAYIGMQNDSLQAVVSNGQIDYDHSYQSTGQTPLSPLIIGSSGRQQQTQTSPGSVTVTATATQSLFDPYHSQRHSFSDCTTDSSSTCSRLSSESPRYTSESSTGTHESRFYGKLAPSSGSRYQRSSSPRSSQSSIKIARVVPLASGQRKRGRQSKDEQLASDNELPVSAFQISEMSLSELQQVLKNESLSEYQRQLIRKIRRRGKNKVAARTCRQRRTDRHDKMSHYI
# Troponin, cardiac muscle = Troponin, cardiac muscle (Homo sapiens, UniProt P19429+P45379+P63316); test: Fluorescence-based biochemical high throughput dose response assay for activators of the calcium sensitivity of cardiac Regulated Thin Filaments (RTF). [Related pubchem assays (depositor defined):AID493008, AID493018, AID504382, AID504383]; format: protein-complex assay
# [8] = target: Protein-tyrosine kinase 2-beta (Homo sapiens, UniProt Q14289);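 further: potency of inhibitors of PYK2 kinase phosphorylation of poly-GT substrate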
# Chain of Protein-tyrosine kinase 2-beta (Q14289 whole entry): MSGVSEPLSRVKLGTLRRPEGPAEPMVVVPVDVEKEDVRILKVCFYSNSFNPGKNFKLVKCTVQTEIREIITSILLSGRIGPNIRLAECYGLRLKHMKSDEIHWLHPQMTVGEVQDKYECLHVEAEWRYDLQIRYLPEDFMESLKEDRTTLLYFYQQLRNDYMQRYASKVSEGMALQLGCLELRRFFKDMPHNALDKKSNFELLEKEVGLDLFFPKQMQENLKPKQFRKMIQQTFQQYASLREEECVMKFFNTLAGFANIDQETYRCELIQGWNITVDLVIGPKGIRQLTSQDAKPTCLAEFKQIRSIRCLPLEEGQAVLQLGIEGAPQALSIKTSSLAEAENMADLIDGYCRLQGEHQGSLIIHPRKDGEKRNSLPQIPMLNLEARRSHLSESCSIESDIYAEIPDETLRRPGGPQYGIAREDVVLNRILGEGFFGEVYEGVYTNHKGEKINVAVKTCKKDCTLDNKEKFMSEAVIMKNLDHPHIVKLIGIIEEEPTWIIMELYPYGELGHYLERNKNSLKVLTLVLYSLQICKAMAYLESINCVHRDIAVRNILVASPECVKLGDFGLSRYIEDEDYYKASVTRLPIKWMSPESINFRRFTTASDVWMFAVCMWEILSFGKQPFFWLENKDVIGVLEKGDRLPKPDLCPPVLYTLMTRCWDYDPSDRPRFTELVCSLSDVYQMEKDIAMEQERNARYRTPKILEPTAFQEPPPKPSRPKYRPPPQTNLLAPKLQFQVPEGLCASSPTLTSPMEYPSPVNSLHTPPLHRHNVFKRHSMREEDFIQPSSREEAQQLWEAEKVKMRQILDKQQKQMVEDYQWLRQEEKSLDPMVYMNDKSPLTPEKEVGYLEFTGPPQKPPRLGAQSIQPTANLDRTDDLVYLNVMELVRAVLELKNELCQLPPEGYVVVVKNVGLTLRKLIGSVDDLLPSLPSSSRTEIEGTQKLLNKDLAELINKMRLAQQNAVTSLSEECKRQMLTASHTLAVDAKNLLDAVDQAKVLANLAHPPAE
# Estrogen receptor beta = Estrogen receptor beta (Homo sapiens, UniProt Q92731); test: blockers of SRC-3 recruitment to ERβ – biochemical, ELISA, streptavidin-HRP readout, orthogonal assay, confirmation (AID 1060)
# Chain of Estrogen receptor beta (Q92731 whole entry): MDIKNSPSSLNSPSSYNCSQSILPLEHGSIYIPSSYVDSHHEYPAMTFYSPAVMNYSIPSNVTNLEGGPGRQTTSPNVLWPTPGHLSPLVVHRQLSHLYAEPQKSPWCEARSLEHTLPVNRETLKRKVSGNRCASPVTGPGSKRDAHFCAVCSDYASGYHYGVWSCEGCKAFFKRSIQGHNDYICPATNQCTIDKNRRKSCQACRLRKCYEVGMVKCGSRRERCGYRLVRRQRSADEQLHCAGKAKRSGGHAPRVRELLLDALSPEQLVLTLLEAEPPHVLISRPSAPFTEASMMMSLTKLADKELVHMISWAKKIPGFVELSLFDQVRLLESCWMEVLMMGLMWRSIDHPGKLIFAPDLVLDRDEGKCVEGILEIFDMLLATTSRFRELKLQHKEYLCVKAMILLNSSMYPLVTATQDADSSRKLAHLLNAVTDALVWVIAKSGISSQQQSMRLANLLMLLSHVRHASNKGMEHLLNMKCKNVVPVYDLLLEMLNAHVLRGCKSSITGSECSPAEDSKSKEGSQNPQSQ
# Fatty acid synthase [9] = target: T5, Fatty acid synthase (Homo sapiens, UniProt P49327); test: inhibition of human FAS-TE enzyme activity – biochemical, endpoint fluorescence intensity, uHTS hits, dose response (AID 624327); format: functional;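 further: fluorescence from hydrolysis of an O-methyl fluorescein acyl ester substrate by the enzyme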
# [10] = NIH3T3 cell viability loss – ATP luminescence, mouse fibroblasts, counter-screen, dose response (AID 2010); format: functional, cell-based;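 further: cells exposed to compound for about 90 hours before reading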
# Fatty acid synthase [11] = target: T5, Fatty acid synthase; test: inhibition of human FAS-TE enzyme activity – biochemical, kinetic fluorescence intensity, dose response (AID 624326); format: functional;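 further: rate of fluorescence rise from hydrolysis of a fluorogenic O-methyl fluorescein ester substrate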
# [12] = Luminescence Cell-Based Dose Response HTS to Identify Inhibitors of 5'UTR Stem-Loop Driven Prion Protein mRNA Translation in H4 Neuroglioblastoma Cells. [Related pubchem assays: 1827 (Project Summary), 1813 (Primary HTS)]; format: functional
# [13] = Vero E6 cell cytotoxicity, dose response, cytotoxicity control for non-replicating M. tuberculosis project, secondary assay (AID 492998); format: functional, VeroE6; details: Vero C1008
# [14] = Trypanosoma cruzi growth suppression in host cells – NIH3T3 host cells, beta-gal luminescence, confirmation (AID 2044); format: functional, cell-based;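 further: intracellular parasites grown in NIH/3T3 mouse fibroblasts as host cells; luminescent beta-galactosidase reporter signal from transgenic T. cruzi replicating inside host cells; inhibitors lower the luminescence signal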
# cells = format: functional
# [15] = HEK-293T cell viability reduction – luminescence, B-cell screen hits, cytotoxicity control for BCR NF-kB inhibitor project, dose response (AID 489021); format: functional, cell-based;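 further: HEK-293T cells carrying an NF-kB luciferase reporter; cells exposed to compound for about 14 hours before viability readout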
# [16] = luciferase reporter signal suppression in cells – H4 neuroglioma cells, luminescence, dose response (AID 1990); format: functional, cell-based
# [17] = THP-1 cell cytotoxicity, dose response, cytotoxicity control for non-replicating M. tuberculosis project (AID 489025); format: functional
# [18] = HepG2 cell cytotoxicity, dose response, cytotoxicity control for non-replicating M. tuberculosis project (AID 489018); format: functional; details: Mycobacterium tuberculosis
# [19] = alpha-synuclein stem-loop luciferase translation blockers – H4 neuroglioma cells, luminescence, confirmation (AID 1988); format: functional, cell-based
# [20] = viability of uninfected HEp-2 cells – cell-based, HTS, cytotoxicity control for RSV inhibitor project, dose response (AID 2410); format: functional; details: human respiratory syncytial virus
# INS1 = test: INS-1E survival protection against cytokine death – cell-based, luminescence, retest, dose response (AID 449756); format: functional; details: Rattus norvegicus;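 further: cell death triggered by IL-1 beta plus TNF-alpha plus IFN-gamma mixture; protective hits raise ATP signal compared with cytokine alone wells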
# [21] = viability loss in HEK293 cells – cell-based, plate reader, cherry-picked samples, cytotoxicity control, dose response (AID 743446); format: functional
# [22] = blockade of melanocortin 4 receptor signaling – cell-based, plate reader, cherry pick, counter-screen for LGR2 antagonist project, dose response (AID 743444); format: functional;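 further: transfected HEK 293 cells stimulated with alpha-MSH peptide; potency of inhibitors of the alpha-MSH evoked signal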
# [23] = A549 cell cytotoxicity, dose response, cytotoxicity control, plate reader, cherry-pick, antagonist series (AID 743412); format: functional, cell-based
# [24] = toxicity toward HepG2 liver cells – cell-based, plate reader, cherry-pick, antagonist series, cytotoxicity control, dose response (AID 743416); format: functional
# [25] = viability loss in THP-1 monocytes – THP-1 cells, cytotoxicity control for Vif-APOBEC3G degradation inhibitor project, dose response (AID 1117359); format: functional; details: THP-1
# HEK293 = test: EBV LMP1 TES2 canonical NF-kB signalling blockers – cell-based, HEK293, luciferase, cherry-pick, dose response (AID 588343); format: functional; details: Homo sapiens
# Paired box protein Pax-8 = Paired box protein Pax-8 (Homo sapiens, UniProt Q06710); test: PAX8 transcriptional activity inhibition in RMG-I – RMG-I cells, luciferase, cherry-pick, dose response (AID 687027); format: functional, cell-based;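 further: luciferase reporter driven by Pax8 target thyroperoxidase promoter measured by SteadyGlo luminescence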
# Chain of Paired box protein Pax-8 (Q06710 whole entry): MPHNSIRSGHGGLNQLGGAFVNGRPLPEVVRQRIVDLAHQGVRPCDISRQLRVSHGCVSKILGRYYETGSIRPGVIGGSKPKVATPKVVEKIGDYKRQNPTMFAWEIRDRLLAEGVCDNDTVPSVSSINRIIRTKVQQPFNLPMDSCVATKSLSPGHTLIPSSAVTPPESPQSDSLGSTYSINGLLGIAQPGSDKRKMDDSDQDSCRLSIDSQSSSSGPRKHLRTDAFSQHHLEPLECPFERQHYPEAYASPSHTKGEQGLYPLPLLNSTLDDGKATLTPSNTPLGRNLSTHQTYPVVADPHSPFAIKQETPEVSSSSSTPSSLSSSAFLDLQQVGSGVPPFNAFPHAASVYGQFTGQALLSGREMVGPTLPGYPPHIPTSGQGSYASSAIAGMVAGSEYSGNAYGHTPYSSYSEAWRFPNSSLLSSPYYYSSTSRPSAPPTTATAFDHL
smiles,measurement,setting,value
Cc1ccc(NC(=O)Cn2nc(C(=O)Nc3ccc(C)cc3)ccc2=O)cc1,IC50,SUMO-activating enzyme [1],30.8 µM (active)
same,IC50,SUMO-activating enzyme [2],18.3 µM (active)
CC1Cc2ccccc2N1C(=O)CSc1nnc(NC(=O)Cc2cccs2)s1 (stereo not drawn),IC50,Estrogen receptor,34 µM (not active)
COC(=O)c1ccc(C(=O)OC)c(NS(C)(=O)=O)c1,IC50,[3],> 100 µM (not active)
same,IC50,[4],> 100 µM (inactive)
Cc1cccc(C(=O)N2CCN(c3ccc(C(F)(F)F)cn3)CC2)c1C,EC50,[5],9.85 µM (active)
Cc1ccc(-c2noc(CCC(=O)N(C)c3ccccc3C)n2)cc1,EC50,[5],4.56 µM (active)
CN(C)c1nc(N(C)C)n(C(=O)c2cccs2)n1,IC50,[6],> 83.3 µM (inactive)
same,IC50,[7],> 109 µM (inactive)
C=CCSc1nnc(-c2ccc(Cl)cc2Cl)o1,IC50,Protein skinhead-1,7.91 µM (active)
same,IC50,[3],> 100 µM (not active)
same,IC50,[4],> 100 µM (inactive)
O=C(CN1CCN(c2ccccc2F)CC1)Nc1cccnc1Cl,EC50,"Troponin, cardiac muscle",> 71.5 µM (inactive)
Cc1cc(OCC(=O)Nc2ccc(N3CCN(C(=O)c4ccco4)CC3)cc2)cc(C)c1Cl,IC50,[8],5.96 µM (active)
CCc1ccccc1N(C)C(=O)CCc1nc(-c2ccc(C)cc2)no1,EC50,[5],5.38 µM (active)
CCN1CCc2c(sc(N)c2C#N)C1,IC50,Estrogen receptor beta,6.55 µM (not active)
same,IC50,[8],23.6 µM (not active)
COc1ccc(CSc2nnc(Cc3sc(-c4ccccc4)nc3-c3ccccc3)o2)cc1,EC50,[5],5.33 µM (active)
O=C(Nc1ccccc1C(=O)Nc1nnc(C(F)(F)F)s1)c1ccccc1,IC50,Fatty acid synthase [9],80 µM (inactive)
same,EC50,[10],2.53 µM (active)
same,IC50,Fatty acid synthase [11],23.5 µM (inactive)
same,EC50,[12],> 120 µM (not active)
same,CC50,[13],> 20 µM (active)
same,EC50,[14],0.927 µM (active)
same,IC50,cells,15.3 µM (active)
same,IC50,[15],46.2 µM (inactive)
same,EC50,[16],> 120 µM (not active)
same,CC50,[17],3.58 µM (active)
same,CC50,[18],3.9 µM (active)
same,EC50,[19],19.3 µM (active)
CCN(c1ccccc1)S(=O)(=O)c1ccc2ncc(C(=O)NCCOC)c(O)c2c1,IC50,Estrogen receptor,27.9 µM (active)
N#Cc1ccccc1OCC(=O)OCC(=O)N1CCN(C(=O)c2ccco2)CC1,IC50,[6],> 83.3 µM (inactive)
same,IC50,[7],> 109 µM (inactive)
CCN(CC)C(=O)CSc1nc(N)c2c3c(sc2n1)CC(C)CC3 (stereo not drawn),CC50,[20],8.74 µM (active)
same,IC50,[8],> 69.5 µM (not active)
Cn1c(Cc2ccccc2)nnc1SCC(=O)c1cccs1,IC50,Estrogen receptor,> 50 µM (not active)
COc1cc(CNCCO)cc(Cl)c1OCc1ccc(Cl)cc1Cl,AC50,INS1,8.94 µM (active)
same,AC50,[21],15.6 µM (active)
same,AC50,[22],43.2 µM (active)
same,AC50,[23],13.9 µM (active)
same,CC50,[13],14.1 µM (active)
same,IC50,cells,24.5 µM (active)
same,AC50,[24],11.2 µM (active)
same,CC50,[17],12.5 µM (active)
same,CC50,[18],15.1 µM (active)
Cc1ccnc(N/C=C(\C#N)c2nc(-c3cccc(Br)c3)cs2)c1,EC50,"Troponin, cardiac muscle",0.761 µM (active)
CCOC(=O)/C(=C/C=C1\Sc2cc(OCC)c(OCC)cc2N1CC)C(C)=O,EC50,"Troponin, cardiac muscle",0.165 µM (active)
Nc1nc(NC(=O)c2ccccc2)nn1-c1ccccc1,IC50,[6],> 83.3 µM (inactive)
same,IC50,[7],> 109 µM (inactive)
CN(Cc1ccccc1)C(=O)c1ccc2c(c1)NC(=O)C(N1CCOCC1)S2 (stereo not drawn),IC50,[3],> 100 µM (not active)
same,IC50,[4],> 100 µM (inactive)
Cc1cc(NC(=O)COC(=O)c2cccc(O)c2)no1,IC50,[6],> 83.2 µM (inactive)
same,IC50,[7],> 109 µM (inactive)
C=C1C(=O)C2=CC1CCC(=O)C1(C)CCC(OC(C)=O)C(C)(C)C1CC2O (stereo not drawn),CC50,[25],4.83 µM (active)
same,AC50,HEK293,5.72 µM (active)
same,AC50,Paired box protein Pax-8,1.43 µM (active)
CN(C)CCN1CCc2ccccc21,IC50,Estrogen receptor beta,0.0579 µM (not active)
same,IC50,[8],6.46 µM (active)
